Converted amounts (≈) assume the structure as drawn. “Also recorded” adds a separate entry of the source. Where two headings read alike, the source gives them in different places.
Experiments:
[1] = test system: C. albicans strain DAY185; assay: in vitro antifungal activity (MIC) in the co-inoculation assay, turbidity read visually; format: cell-based; conditions: for MIC in vitro: co-inoculation assay, two-fold serial dilutions, C. albicans DAY185; for in vitro growth of C. albicans: screen / dose response
Procedure: (§1) The procedure for the co-inoculation antifungal compound screen were conducted as previously described (Okoli et al., PLoS ONE, 4:e7025 (2009); Tampakakis et al., Nat Protocols, 3:1925-1931 (2008)), using the C. albicans strain DAY185 (Davis et al., Infect Immun, 68:5953-5959 (2000)) and the C. elegans glp-4;sek-1 double mutant.
The determination of the lowest concentration of the selected compounds showing in vitro antifungal activity was accomplished by following the steps detailed in the co-inoculation assay, using two-fold serial dilutions of the test compounds.

[2] = test system: C. albicans; assay: C. elegans-C. albicans co-inoculation assay, nematode survival; format: in vivo; conditions: for promoting C. elegans survival compared with amphotericin B / maximum nematode survival: dose response; for promoting C. elegans survival compared with amphotericin B: FIG. 2A; for EC50 in vivo: dose that resulted in 50% survival of C. albicans-infected nematodes; for maximum nematode survival: C. albicans-infected C. elegans
Procedure: as §1
(§2) This assay allows simultaneous assessment of a compound's potential toxicity and the ability to promote the survival of the nematode in the presence of C. albicans, including modes of action not traditionally considered in antifungal assays such as impeding a fungal virulence factor or promoting host immune response. We performed a screen of 2,560 natural products representing a fraction of the Analyiticon Discovery compound collection (ac-discovery.com) housed at the Broad Institute of Harvard and MIT (Cambridge, Mass.). […] These natural products identified in the primary screen were retested and confirmed (FIG. 1; Table 1). […] Moreover, although the antifungal effects of some of these saponins have been reported (Sata et al., Biosci Biotechnol Biochem, 62:1904-1911 (1998); Ohtani et al., Phytochem, 33:83-86 (1993)), their efficacy against Candida spp. has not been studied.
After confirmation of these hits, dose response experiments were conducted to determine the concentration that provided maximum nematode survival. The compounds conferred a range of nematode survival from 27% (compound A6) to 93% (compounds A2, A7, A24, and A25), however, with the exception of A6, all compounds conferred a nematode survival over 65% (FIG. 1).

[3] = test system: C. elegans; assay: toxicity to the nematode in dose response experiments; conditions: for toxicity to the nematode: dose response experiments, higher concentrations
Source text: as §2
Representatives of the saponins family are able to disrupt cellular membranes and the lytic activity on erythrocytes has been used as an assay for some saponins Francis et al., British Journal of Nutrition, 88:587-605 (2002)). This property is derived from the affinity of some saponins for binding cholesterol forming insoluble pores composed of the sterol and saponins (Bangham et al., Nature, 196:952-953(1962); Glauert et al., Nature, 196:953-955 (1962)). […] The dose-response experiments previously used to determine the EC50 and approximate the MIC can also indicate if the saponins maybe toxic to C. elegans and potentially to mammalian cells.

[4] = test system: C. albicans strains; assay: MIC by standard CLSI microdilution protocol M27-A; format: cell-based
Procedure: Using the standard Clinical and Laboratory Standards Institute (CLSI) procedure, the in vitro MIC of these two compounds was determined on the following C. albicans strains: DAY185 (the standard strain used throughout the screen), two fluconazole-resistant strains of C. albicans, and an echinocandin-resistant strain of C. albicans (Table 2).
The minimal inhibitory concentration (MIC) was determined for strains DAY185, 98-145, 95-120 (White et al., Antimicrob Agents Chemother, 46:1704-1713 (2002)), and A15-10 (Garcia-Effron et al., Antimicrob Agents Chemother, 53:112-122 (2009)) spectrophotometrically using RPMI 1640 media (Mediatech, Inc.) following the standard CLSI microdilution protocol M27-A (National Committee for Clinical Laboratory Standards, Reference method for broth dilution susceptibility testing of yeasts. Tentative standard M27-A, Villanova, Pa. (1995)). Biofilm assays using identified compounds were conducted as previously described (Richard et al., Eukaryot Cell, 4:1493-1502 (2005)). The biofilm dry mass was determined by drying the silicone squares in a chemical hood, and weighing the resulting biofilm mass subtracting the previously weighed mass of the silicone square. Biofilm pictures were captured using a confocal laser microscope (TCS NT, Leica Microsystems). Cells were grown at 30° C., exposed to PS for 30 min, and then washed with PBS.

[5] = test system: C. albicans DAY185; conditions: at the concentrations used, yeast cells; cited from earlier work
[6] = test system: C. albicans isolates; assay: interaction between A16 and fluconazole (MIC); format: cell-based
Source text: Since compound A16 was able to facilitate uptake of PS compounds, we investigated their ability to increase uptake to the commonly used antifungal agent fluconazole. As indicated above, fluconazole and saponins have different target sites, although they both function by altering the fungal cell membrane. […] One of the molecular mechanisms responsible for increased resistance to fluconazole for isolate 98-145 is a homozygous V437I point mutation in the ERG11 gene (White et al., Antimicrob Agents Chemother, 46:1704-1713 (2002)).

CC1CC[C@@]2(OC1)O[C@H]1CC3C4CC=C5C[C@@H](O[C@@H]6O[C@H](CO)[C@@H](O[C@@H]7O[C@@H](C)[C@H](O)[C@@H](O)[C@H]7O[C@@H]7O[C@@H](C)[C@H](O)[C@@H](O)[C@H]7O)[C@H](O)[C@H]6O)CC[C@]5(C)C4CC[C@]3(C)[C@H]1[C@@H]2C (some centres unmarked) [A20]
MIC in vitro [1]: 4.8 µg/mL (≈ 5.52 µM) | promoting C. elegans survival compared with amphotericin B [2]: as effective as amphotericin B | EC50 in vivo [2]: 4.8 µg/mL (≈ 5.52 µM)

CC1CC[C@@]2(OC1)O[C@H]1CC3C4C[C@@H](O)C5C[C@@H](O[C@@H]6O[C@H](CO)[C@H](O[C@@H]7O[C@H](CO)[C@@H](O)[C@H](O[C@@H]8OC[C@@H](O[C@@H]9O[C@H](CO)[C@@H](O)[C@H](O)[C@H]9O)[C@H](O)[C@H]8O)[C@H]7O[C@@H]7O[C@H](CO)[C@@H](O)[C@H](O)[C@H]7O)[C@H](O)[C@H]6O)CC[C@]5(C)C4CC[C@]3(C)[C@H]1[C@@H]2C (some centres unmarked) [A24]
toxicity to the nematode [3]: decrease in nematode survival | concentrations showing evidence of toxicity to the worms ([3]; in vivo): > 27000 ng/mL | MIC in vitro [1]: 13.3 µg/mL (≈ 11 µM) | maximum nematode survival [2]: 93% | EC50 in vivo [2]: 13.3 µg/mL (≈ 11 µM)

C/C=C(/C)C(=O)O[C@H]1CC(C)(C)C[C@H]2C3=CCC4[C@@]5(C)CC[C@H](O[C@@H]6O[C@H](C(=O)O)[C@@H](O[C@@H]7O[C@H](CO)[C@H](O)[C@H](O)[C@H]7O[C@@H]7O[C@H](CO)[C@@H](O)[C@H](O)[C@H]7O)[C@H](O)[C@H]6OC6O[C@@H](C)[C@H](O)[C@@H](O)[C@H]6O)C(C)(C)C5CC[C@@]4(C)[C@]3(C)[C@@H](OC(C)=O)[C@@H](O)[C@@]12COC(C)=O (some centres unmarked) [A25]
MIC in vitro [1]: 28.7 µg/mL (≈ 22 µM) | in vitro growth of C. albicans [1]: completely inhibited | maximum nematode survival [2]: 93% | EC50 in vivo [2]: 28.7 µg/mL (≈ 22 µM)

C[C@@H]1[C@H](O)[C@@H](C)/C=C/C=C/C=C/C=C/C=C/C=C/C=C/[C@H](O[C@@H]2O[C@H](C)[C@@H](O)[C@H](N)[C@@H]2O)C[C@@H]2O[C@](O)(C[C@@H](O)C[C@@H](O)[C@H](O)CC[C@@H](O)C[C@@H](O)CC(=O)O[C@H]1C)C[C@H](O)[C@H]2C(=O)O [Amphotericin B]
MIC ([4]; C. albicans DAY185): 2 µg/mL (≈ 2.16 µM) | MIC ([4]; echinocandin-resistant strain A15): 2 µg/mL (≈ 2.16 µM) | MIC ([4]; fluconazole-resistant strain 95-120): 2 µg/mL (≈ 2.16 µM) | MIC ([4]; fluconazole-resistant strain 98-145): 2 µg/mL (≈ 2.16 µM) | MIC in vitro [1]: 1.0 µg/mL (≈ 1.08 µM) | maximum nematode survival [2]: 93% | EC50 in vivo [2]: 2.0 µg/mL (≈ 2.16 µM)

CC1CC[C@@]2(OC1)O[C@H]1CC3C4C[C@@H](O)C5C[C@@H](O[C@@H]6O[C@H](CO)[C@H](O[C@@H]7O[C@H](CO)[C@@H](O)[C@H](O[C@@H]8OC[C@@H](O)[C@H](O)[C@H]8O)[C@H]7O[C@@H]7O[C@H](CO)[C@@H](O)[C@H](O)[C@H]7O)[C@H](O)[C@H]6O)CC[C@]5(C)C4CC[C@]3(C)[C@H]1[C@@H]2C (some centres unmarked) [A8]
MIC in vitro [1]: 5.8 µg/mL (≈ 5.52 µM) | EC50 in vivo [2]: 23.1 µg/mL (≈ 22 µM)

CC1(C)CC[C@]2(C(=O)O)CC[C@]3(C)C(=CCC4[C@@]5(C)CC[C@H](OC6O[C@H](CO)[C@@H](O)[C@H](O[C@@H]7O[C@H](CO)[C@@H](O)[C@H](O)[C@H]7O)[C@H]6O)C(C)(C)C5CC[C@]43C)[C@@H]2C1 (some centres unmarked) [A6, Arvensoside B]
maximum nematode survival [2]: 27%

C[C@@H]1O[C@@H](O[C@H]2[C@H](O[C@H]3[C@H](O[C@H]4[C@H](O)[C@@H](O[C@@H]5O[C@H](CO)[C@@H](O)[C@H](O)[C@H]5O)[C@H](O[C@H]5CC[C@@]6(C)C(CC[C@]7(C)C6CC[C@]68OCC9(CCC(C)(C)CC96)[C@H](O)C[C@]87C)C5(C)C)O[C@@H]4C(=O)O)O[C@H](CO)[C@H](O)[C@@H]3O)O[C@@H](C)[C@H](O)[C@H]2O)[C@H](O)[C@H](O)[C@H]1O (some centres unmarked) [A2, Sakurasosaponin]
MIC in vitro [1]: 27.5 µg/mL (≈ 22 µM) | in vitro growth of C. albicans [1]: completely inhibited | maximum nematode survival [2]: 93% | EC50 in vivo [2]: 55.1 µg/mL (≈ 44 µM)

O=C1OC2(c3cc(I)c(O)c(I)c3Oc3c2cc(I)c(O)c3I)c2c(Cl)c(Cl)c(Cl)c(Cl)c21 [RB, Rose Bengal]
PDI effect of photosensitizer alone [5]: no statistically significant PDI effect

C/C=C(/C)C(=O)O[C@H]1[C@H](OC(=O)/C(C)=C\C)[C@]2(CO)[C@H](O)C[C@]3(C)C(=CCC4[C@@]5(C)CC[C@H](OC6OC(C(=O)O)C(O)C(OC7OC(C)C(O)C(OC8OC(CO)C(O)C(O)C8O)C7O)C6O)C(C)(C)C5CC[C@]43C)[C@@H]2CC1(C)C (some centres unmarked) [A7]
toxicity to the nematode [3]: decrease in nematode survival; also recorded: maybe toxic to the nematode | MIC in vitro [1]: 3.1 µg/mL (≈ 2.72 µM) | in vitro growth of C. albicans [1]: completely inhibited | maximum nematode survival [2]: 93% | promoting C. elegans survival compared with amphotericin B [2]: as effective as amphotericin B | EC50 in vivo [2]: 3.1 µg/mL (≈ 2.72 µM)

OC(Cn1cncn1)(Cn1cncn1)c1ccc(F)cc1F [Fluconazole]
MIC ([6]; Candida albicans, C. albicans isolate DAY185, read-out: MIC of fluconazole alone): 2 µg/mL | MIC of fluconazole in combination with A16 ([6]; DAY185, subinhibitory A16 (4 μg/mL)): 1 µg/mL | sensitivity to fluconazole treatment in the presence of A16 ([6]; two C. albicans isolates with increased resistance to fluconazole): no increase in sensitivity | MIC ([4]; Candida albicans, C. albicans DAY185, read-out: MIC): 2 µg/mL (≈ 6.53 µM) | MIC ([4]; Candida albicans, echinocandin-resistant strain A15, read-out: MIC): 2 µg/mL (≈ 6.53 µM) | MIC ([4]; Candida albicans, fluconazole-resistant strain 95-120, read-out: MIC): 32 µg/mL (≈ 104 µM) | MIC ([4]; Candida albicans, fluconazole-resistant strain 98-145, read-out: MIC): > 128 µg/mL

C=Cc1c(C)c2cc3nc(c(CC(=O)O)c4[nH]c(cc5nc(cc1[nH]2)C(C)=C5CC)c(C)c4C(=O)O)[C@@H](CCC(=O)O)[C@@H]3C [ce6, chlorin(e6)]
PDI effect of photosensitizer alone [5]: no statistically significant PDI effect

CC[C@H](C)C[C@H](C)CCCCCCCCC(=O)N[C@H]1C[C@@H](O)[C@@H](NCCN)NC(=O)[C@@H]2[C@@H](O)CCN2C(=O)[C@H]([C@H](O)CCN)NC(=O)[C@H]([C@H](O)[C@@H](O)c2ccc(O)cc2)NC(=O)[C@@H]2C[C@@H](O)CN2C(=O)[C@H]([C@@H](C)O)NC1=O [Caspofungin]
MIC ([4]; Candida albicans, C. albicans DAY185): 2 µg/mL (≈ 1.83 µM) | MIC ([4]; Candida albicans, echinocandin-resistant strain A15): 8 µg/mL (≈ 7.32 µM) | MIC ([4]; Candida albicans, fluconazole-resistant strain 95-120): 1 µg/mL (≈ 0.915 µM) | MIC ([4]; Candida albicans, fluconazole-resistant strain 98-145): 1 µg/mL (≈ 0.915 µM)

CC1CC[C@@]2(OC1)O[C@H]1CC3C4CC=C5C[C@@H](O[C@@H]6O[C@H](CO)[C@@H](O[C@@H]7O[C@@H](C)[C@H](O)[C@@H](O)[C@H]7O)[C@H](O)[C@H]6O[C@@H]6O[C@@H](C)[C@H](O)[C@@H](O)[C@H]6O)CC[C@]5(C)C4CC[C@]3(C)[C@H]1[C@@H]2C (some centres unmarked) [A11]
MIC in vitro [1]: 38.9 µg/mL (≈ 44.8 µM) | EC50 in vivo [2]: 38.9 µg/mL (≈ 44.8 µM)

— patent publication US8987217B2, “Modified saponins for the treatment of fungal infections” (The General Hospital Corporation, priority 2010, dated 2015)
